Conditions: Gas; for mass density: Gas pipette; for viscosity: Oscillating disk viscometry

COC [dimethyl ether]
Conditions | mass density [kg/m3] | viscosity [mPa·s]
298.15 K, 101 kPa | 1.91 | 0.00922
298.15 K, 296 kPa | 6.081 | 0.00918
298.15 K, 475 kPa | 10.06 | 0.0091
323.15 K, 101 kPa | 1.652 | 0.00997
323.15 K, 295 kPa | 5.561 | 0.00996
323.15 K, 490 kPa | 9.31 | 0.00993
323.15 K, 736 kPa | 14.71 | 0.00995
323.15 K, 976 kPa | 22.53 | 0.00994
348.15 K, 101 kPa | 1.332 | 0.01081
348.15 K, 305 kPa | 5.17 | 0.01081
348.15 K, 551 kPa | 9.705 | 0.01082
348.15 K, 1006 kPa | 19.03 | 0.01085
348.15 K, 1561 kPa | 35.81 | 0.01094
348.15 K, 1850 kPa | 44.66 | 0.01106
373.15 K, 101 kPa | 1.235 | 0.01161
373.15 K, 305 kPa | 4.748 | 0.0116
373.15 K, 500 kPa | 7.787 | 0.01162
373.15 K, 1028 kPa | 16.71 | 0.01168
373.15 K, 1940 kPa | 35.33 | 0.01191
373.15 K, 2505 kPa | 51.25 | 0.01219
373.15 K, 2875 kPa | 67.49 | 0.01247
373.15 K, 3049 kPa | 74.07 | 0.01261
398.15 K, 101 kPa | 0.948 | 0.01234
398.15 K, 300 kPa | 4.392 | 0.01237
398.15 K, 531 kPa | 7.678 | 0.01239
398.15 K, 992 kPa | 15.1 | 0.01244
398.15 K, 2085 kPa | 34.47 | 0.01274
398.15 K, 2985 kPa | 54.66 | 0.01317
398.15 K, 3965 kPa | 87.68 | 0.0141
398.15 K, 4480 kPa | 112.3 | 0.01504
398.15 K, 4620 kPa | 122.4 | 0.01543
423.15 K, 101 kPa | 1.009 | 0.01332
423.15 K, 310 kPa | 4.289 | 0.01333
423.15 K, 505 kPa | 6.812 | 0.01335
423.15 K, 985 kPa | 13.75 | 0.01342
423.15 K, 2022 kPa | 30.21 | 0.0137
423.15 K, 3004 kPa | 48.47 | 0.01413
423.15 K, 4015 kPa | 71.3 | 0.01477
423.15 K, 4495 kPa | 86.57 | 0.01521
423.15 K, 4912 kPa | 99.15 | 0.01568

Reference: the NIST ThermoML archive (doi:10.1021/je8009545)
